In patent publication US20070224648A1, “Methods and compositions for the diagnosis of treatment of type 2 diabetes” (The Chancellor, Masters and Scholars of the University of …, priority 2005, published 2007):

How the values were obtained:
MIN6 cells [1] = assay: Insulin secretion from MIN6 cells; format: cell-based; conditions: for insulin secretion: tolbutamide 200 μM; for insulin secretory response: 1 mM glutathione for 4 hours, Nnt siRNA transfected cells
MIN6 cells [2] = assay: Fura-2 calcium imaging in MIN6 cells; format: cell-based; conditions: for calcium response to glucose: 1 mM glutathione for 4 hours, Nnt siRNA transfected cells
Procedure: (§1) MIN6 cells were cultured on 35mm Fluorodishes (World Precision Instruments) and incubated with 3 μM Fura-2-AM (Molecular Probes) for 40 min at 37° C. They were imaged at room temperature (20-24° C.) using an IonOptix fluorescence system (Boston, Mass.), with 340 nm and 380 nm dual excitation. The 510 nm emission ratio was collected at 1 Hz. Background subtraction was performed by measuring fluorescence from a cell-free region in the field of view. Cells were perfused continuously with extracellular solution containing (mM): 137 NaCl, 5.6 KCl, 2.6 CaCl2, 1.2 MgCl2, 10 HEPES (pH 7.4 with NaOH) plus glucose or tolbutamide as indicated.

[3] = tested on: isolated pancreatic islets; assay: Insulin secretion from isolated pancreatic islets
[4] = tested on: β-cells isolated from C57BL/6J and C3H/HeH mice; assay: Fura-2 imaging of intracellular calcium in isolated β-cells; format: cell-based, mouse; conditions: 500 μmol/l tolbutamide; C57BL/6J and C3H/HeH β-cells
Procedure: as §1, with “Islet” for “MIN6”, “35 mm” for “35mm”, “Instruments, Stevenage, UK)” for “Instruments)”, “Probes, Paisley, UK)” for “Probes)”, “(as in perforated-patch experiments),” for “containing (mM): 137 NaCl, 5.6 KCl, 2.6 CaCl2, 1.2 MgCl2, 10 HEPES (pH 7.4 with NaOH)”, “indicated. Only data from cells that responded to 500 μmol/l tolbutamide were analysed.” for “indicated.”

[5] = tested on: type-2 diabetic human islets; conditions: cited from earlier work
[6] = tested on: isolated wild-type islets; assay: Glucose utilization in isolated pancreatic islets; format: cell-based, mouse; conditions: H2O2, 20 mM glucose
Procedure: FIG. 19: Glucose utilization in pancreatic islets isolated wild-type and homozygous NNT mutant mice (G745D). Each data point is the mean of 6 replicates each of 5 islets. Glucose utilization was measured as described in Ashcroft S J H, Weerasinghe L C C, Bassett J M, Randle P J: The pentose cycle and insulin release in mouse pancreatic islets. Biochem J (1972) 126, 525-532. Briefly, And these islets were placed in 20 microlitres of medium containing [3H]glucose and various concentrations of unlabelled glucose (as indicated). The tubes were placed in outer vials containing 0.5 ml of water. After 2-hours of incubation, metabolism was terminated by applying 5 microlitres of HCl. Then these samples were incubated for more than 18-24 hours to allow [3H]water in the incubation tube to equilibrate with the water in outer vial. Then, radioactivity of the water in the outer vial was measured. Control samples without islets were used to correct for background counts.
FIG. 20: Effect of H2O2 on glucose utilization in isolated wild-type islets. Each data point is the mean of 6 replicates each of 5 islets.

rodent islets = conditions: cited from earlier work
[7] = molecular target: T1, KATP channels from C57BL/6J β-cells (Mus musculus, UniProt Q61743); assay: ATP sensitivity of KATP channels in inside-out patches; format: biochemical
T1 construct: inside-out patches excised from a C57BL/6J or CH3/HeH β-cell; endogenous in cells; host or cells: primary pancreatic β-cells isolated from C57BL/6J and C3H/HeH mice
Procedure: The ATP sensitivity of KATP channels was measured at −60 mV in inside-out patches. Currents were digitized at 5 kHz and filtered at 2 kHz. The pipette (extracellular) contained (mmol/l): 140 KCl, 2.6 CaCl2, 1.2 MgCl2, 10 HEPES (pH 7.4 with KOH). The bath (intracellular) solution contained (mmol/l): 107 KCl, 1 MgCl2, 1 CaCl2, 10 HEPES (pH 7.2 with KOH), and K2ATP as indicated.
Concentration-response relations were obtained by alternating test solutions with control (glucose- or ATP-free) solution. The control conductance was taken as the mean of that obtained in control solution before and after application of the test agent. The current in the presence of glucose or nucleotide (I) is plotted as a fraction of that obtained in control solution (IC). Data were fit with the Hill equation: I/IC=1/(1+([X]/IC50)h) where [X] is the concentration of glucose or ATP, IC50 is the concentration giving half-maximal inhibition of the current and h is the Hill coefficient. Data are given as mean±one S.E.M.

[8] = tested on: human and rodent pancreatic islets; conditions: preincubation in 15 μM metformin; cited from earlier work

T1 sequence (Q61743 whole entry): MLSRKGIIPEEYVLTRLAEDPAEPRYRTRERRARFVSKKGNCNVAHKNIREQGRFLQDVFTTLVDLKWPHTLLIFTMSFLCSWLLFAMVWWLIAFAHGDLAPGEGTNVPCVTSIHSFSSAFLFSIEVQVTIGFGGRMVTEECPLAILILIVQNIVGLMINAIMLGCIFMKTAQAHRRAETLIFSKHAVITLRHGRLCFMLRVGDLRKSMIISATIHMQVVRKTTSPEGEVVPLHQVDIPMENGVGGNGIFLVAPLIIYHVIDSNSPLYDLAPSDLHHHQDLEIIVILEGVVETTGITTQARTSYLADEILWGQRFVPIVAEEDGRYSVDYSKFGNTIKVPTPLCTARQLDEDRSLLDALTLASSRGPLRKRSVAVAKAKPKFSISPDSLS
T1 sequence (B2RUS7 1-1588 partner): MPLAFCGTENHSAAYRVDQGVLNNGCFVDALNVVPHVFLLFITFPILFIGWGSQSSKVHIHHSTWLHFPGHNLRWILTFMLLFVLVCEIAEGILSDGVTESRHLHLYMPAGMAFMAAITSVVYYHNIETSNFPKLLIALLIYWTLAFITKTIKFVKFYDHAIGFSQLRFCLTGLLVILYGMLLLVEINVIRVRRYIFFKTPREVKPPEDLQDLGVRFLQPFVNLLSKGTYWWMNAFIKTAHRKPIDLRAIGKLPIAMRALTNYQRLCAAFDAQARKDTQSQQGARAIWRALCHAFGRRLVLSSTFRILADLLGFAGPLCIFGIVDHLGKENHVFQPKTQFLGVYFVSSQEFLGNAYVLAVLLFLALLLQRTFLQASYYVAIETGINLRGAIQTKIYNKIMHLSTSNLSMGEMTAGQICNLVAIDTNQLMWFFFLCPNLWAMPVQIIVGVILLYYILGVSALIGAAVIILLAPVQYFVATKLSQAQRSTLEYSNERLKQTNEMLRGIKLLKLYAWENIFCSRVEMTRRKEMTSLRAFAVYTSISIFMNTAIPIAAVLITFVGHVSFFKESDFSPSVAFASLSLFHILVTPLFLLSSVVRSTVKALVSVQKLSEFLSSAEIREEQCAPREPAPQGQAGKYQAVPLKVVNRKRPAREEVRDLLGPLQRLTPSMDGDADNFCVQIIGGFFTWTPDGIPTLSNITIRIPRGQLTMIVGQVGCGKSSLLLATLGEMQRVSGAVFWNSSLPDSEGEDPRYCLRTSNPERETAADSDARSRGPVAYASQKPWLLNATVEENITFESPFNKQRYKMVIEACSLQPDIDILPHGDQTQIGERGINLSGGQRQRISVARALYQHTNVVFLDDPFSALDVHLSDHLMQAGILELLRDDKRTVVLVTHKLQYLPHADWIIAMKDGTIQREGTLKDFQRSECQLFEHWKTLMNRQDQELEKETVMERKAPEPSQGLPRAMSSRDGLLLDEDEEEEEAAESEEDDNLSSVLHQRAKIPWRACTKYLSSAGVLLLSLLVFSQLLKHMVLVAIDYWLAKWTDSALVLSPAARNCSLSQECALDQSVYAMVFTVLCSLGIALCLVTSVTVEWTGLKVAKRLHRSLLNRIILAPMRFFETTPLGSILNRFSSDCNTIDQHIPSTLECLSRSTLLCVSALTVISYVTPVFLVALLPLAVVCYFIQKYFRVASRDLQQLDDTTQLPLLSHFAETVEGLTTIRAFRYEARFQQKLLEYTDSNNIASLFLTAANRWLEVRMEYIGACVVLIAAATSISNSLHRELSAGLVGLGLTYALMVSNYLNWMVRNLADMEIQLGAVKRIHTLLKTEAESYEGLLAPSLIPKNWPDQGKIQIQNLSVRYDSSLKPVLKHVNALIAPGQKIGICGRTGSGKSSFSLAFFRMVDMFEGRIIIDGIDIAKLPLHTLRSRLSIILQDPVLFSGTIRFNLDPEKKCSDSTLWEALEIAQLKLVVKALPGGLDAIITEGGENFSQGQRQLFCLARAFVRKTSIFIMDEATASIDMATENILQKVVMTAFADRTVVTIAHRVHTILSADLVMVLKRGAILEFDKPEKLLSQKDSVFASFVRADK

## CCCCNC(=O)NS(=O)(=O)c1ccc(C)cc1 [tolbutamide]
MIN6 cells [1]; nonsense vs Nnt siRNA transfected cells
  insulin secretion: elicited equivalent responses in both nonsense and Nnt siRNA transfected cells
MIN6 cells [1]; nonsense, Nnt, UCP2, UCP2/Nnt or Gck siRNA transfected cells
  insulin secretion: stimulated a calcium response and insulin secretion
MIN6 cells [2]; tolbutamide 200 μM, nonsense vs Nnt siRNA transfected cells
  increase in [Ca]i: stimulated a similar increase in [Ca]i in both cells transfected with nonsense and Nnt siRNA
MIN6 cells [2]; tolbutamide 200 μM, nonsense, Nnt, UCP2 or UCP2+Nnt siRNA transfected cells
  calcium response: stimulated a calcium response
[3]; tolbutamide, B6-TG vs B6-TG negative islets
  insulin secretion: stimulated secretion comparably in both strains
[4]
  change in [Ca2+]i: rise in [Ca2+]i

## N[C@@H](CCC(=O)N[C@@H](CS)C(=O)NCC(=O)O)C(=O)O [glutathione]
MIN6 cells [1]
  insulin secretory response: partially reversed the impaired calcium and insulin secretory responses
MIN6 cells [1]; listed as Glutathione
  insulin secretory response: partially restores the insulin secretory response
MIN6 cells [2]
  calcium response to glucose: partially reversed the impaired calcium
MIN6 cells [2]; listed as Glutathione
  calcium response to glucose: partially restores the calcium response
[5]; 24-hour culture with 30 μM glutathione
  secretory response to glucose: improved significantly

## OO [H2O2]
[6]
  glucose utilization: significantly increases glucose utilization
Rodent islets; H2O2, rodent β-cells
  insulin secretion: inhibits insulin secretion

## Nc1ncnc2c1ncn2[C@@H]1O[C@H](COP(=O)(O)OP(=O)(O)OP(=O)(O)O)[C@@H](O)[C@H]1O [ATP]
[7]; inside-out patches, n=5
  Hill coefficient h, ATP on KATP channel activity: 0.89±0.06
[7]; read-out: half-maximal inhibition of C57BL/6J KATP channels by ATP (IC50)
  IC50: 10 µM

## CN(C)C(=N)N=C(N)N [metformin]
[5]; preincubation in 15 μM metformin
  insulin secretion: partially restores insulin secretion in type-2 diabetic human islets
[3]; Nnt-G745D islets, 24-hour preincubation in 15 μM metformin
  glucose-stimulated insulin secretion: restored glucose-stimulated insulin secretion in pancreatic islets from the Nnt-G745D mutant mouse
[3]; Nnt-G745D islets, 24-hour preincubation in 15 μM metformin, listed as Metformin
  glucose-stimulated insulin secretion: restores insulin secretion in Nnt mouse pancreatic islets
[3]; WT islets, 24-hour preincubation in 15 μM metformin
  glucose-stimulated insulin secretion: little effect on wild-type (WT) pancreatic islets
[3]; acute exposure to metformin
  glucose-stimulated insulin secretion: without effect
Rodent islets; incubation at 1 mM metformin
  glucose-stimulated insulin secretion: reduces glucose-stimulated insulin secretion
[8]
  protection from deleterious effects of elevated lipids: protects human and rodent pancreatic islets from the deleterious effects of elevated lipids
